Results from patent publication US20260356830A1, “COMPOUNDS FOR MODULATING RET PROTEIN” (Bristol-Myers Squibb Company, priority 2022, published 2026).

Target: T1, CCDC6-RET (Homo sapiens, UniProt P07949+Q16204+Q96SW2)
T1 construct: CCDC6 (natural N-terminal fusion partner, UniProt Q16204); endogenous in cells; host or cells: TPC-1 (parental, papillary thyroid carcinoma)
Experiment: Cellular RET degradation, AlphaLISA, TPC-1 cell line
Assay type: cell-based
Conditions: for Dmax: TPC1, human, 24 h, read-out: Cell Density TPC-1/CCDC6-RET Ymax %; for DC50: read-out: Cell Density TPC-1/CCDC6-RET DC50, half-maximal degradation concentration, TPC-1 (CCDC6-RET), 24 hrs
In short: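 TPC-1 papillary thyroid carcinoma cells (endogenous CCDC6-RET) in DMEM with 2% FBS, compound-treated 24 h at 37 °C. RET in lysates quantified by AlphaLISA luminescence, normalized to media-only and DMSO wells; DC50 and maximal degradation from 4-parameter logistic fit.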

T1 sequence (Q16204+P07949 fused): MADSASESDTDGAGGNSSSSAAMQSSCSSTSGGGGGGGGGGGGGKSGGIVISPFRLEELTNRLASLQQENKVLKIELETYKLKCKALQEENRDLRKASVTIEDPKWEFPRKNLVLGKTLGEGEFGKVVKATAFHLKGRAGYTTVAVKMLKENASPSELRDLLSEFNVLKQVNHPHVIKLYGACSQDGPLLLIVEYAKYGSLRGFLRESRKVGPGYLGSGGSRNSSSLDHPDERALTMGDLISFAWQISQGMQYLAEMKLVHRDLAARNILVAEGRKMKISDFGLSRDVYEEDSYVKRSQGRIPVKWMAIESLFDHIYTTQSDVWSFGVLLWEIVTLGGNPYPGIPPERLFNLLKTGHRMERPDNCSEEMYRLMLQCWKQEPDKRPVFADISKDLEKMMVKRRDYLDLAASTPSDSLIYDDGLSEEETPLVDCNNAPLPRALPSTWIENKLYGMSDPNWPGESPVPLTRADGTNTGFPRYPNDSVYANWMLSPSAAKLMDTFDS
T1 sequence (Q96SW2 whole entry, the tested form may be a part): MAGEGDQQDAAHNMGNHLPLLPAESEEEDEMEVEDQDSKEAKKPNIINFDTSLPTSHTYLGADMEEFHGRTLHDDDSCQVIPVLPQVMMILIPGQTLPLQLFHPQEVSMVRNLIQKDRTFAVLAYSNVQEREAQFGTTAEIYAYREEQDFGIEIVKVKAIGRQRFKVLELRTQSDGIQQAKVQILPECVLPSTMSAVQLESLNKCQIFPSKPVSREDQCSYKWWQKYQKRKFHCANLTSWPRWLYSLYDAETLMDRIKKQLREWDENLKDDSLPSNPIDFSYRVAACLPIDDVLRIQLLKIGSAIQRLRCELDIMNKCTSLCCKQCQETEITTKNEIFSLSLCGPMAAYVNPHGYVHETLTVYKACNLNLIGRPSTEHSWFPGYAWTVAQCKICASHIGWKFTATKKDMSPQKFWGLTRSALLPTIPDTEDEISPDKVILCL
T1 sequence (Q16531 whole entry partner, the tested form may be a part): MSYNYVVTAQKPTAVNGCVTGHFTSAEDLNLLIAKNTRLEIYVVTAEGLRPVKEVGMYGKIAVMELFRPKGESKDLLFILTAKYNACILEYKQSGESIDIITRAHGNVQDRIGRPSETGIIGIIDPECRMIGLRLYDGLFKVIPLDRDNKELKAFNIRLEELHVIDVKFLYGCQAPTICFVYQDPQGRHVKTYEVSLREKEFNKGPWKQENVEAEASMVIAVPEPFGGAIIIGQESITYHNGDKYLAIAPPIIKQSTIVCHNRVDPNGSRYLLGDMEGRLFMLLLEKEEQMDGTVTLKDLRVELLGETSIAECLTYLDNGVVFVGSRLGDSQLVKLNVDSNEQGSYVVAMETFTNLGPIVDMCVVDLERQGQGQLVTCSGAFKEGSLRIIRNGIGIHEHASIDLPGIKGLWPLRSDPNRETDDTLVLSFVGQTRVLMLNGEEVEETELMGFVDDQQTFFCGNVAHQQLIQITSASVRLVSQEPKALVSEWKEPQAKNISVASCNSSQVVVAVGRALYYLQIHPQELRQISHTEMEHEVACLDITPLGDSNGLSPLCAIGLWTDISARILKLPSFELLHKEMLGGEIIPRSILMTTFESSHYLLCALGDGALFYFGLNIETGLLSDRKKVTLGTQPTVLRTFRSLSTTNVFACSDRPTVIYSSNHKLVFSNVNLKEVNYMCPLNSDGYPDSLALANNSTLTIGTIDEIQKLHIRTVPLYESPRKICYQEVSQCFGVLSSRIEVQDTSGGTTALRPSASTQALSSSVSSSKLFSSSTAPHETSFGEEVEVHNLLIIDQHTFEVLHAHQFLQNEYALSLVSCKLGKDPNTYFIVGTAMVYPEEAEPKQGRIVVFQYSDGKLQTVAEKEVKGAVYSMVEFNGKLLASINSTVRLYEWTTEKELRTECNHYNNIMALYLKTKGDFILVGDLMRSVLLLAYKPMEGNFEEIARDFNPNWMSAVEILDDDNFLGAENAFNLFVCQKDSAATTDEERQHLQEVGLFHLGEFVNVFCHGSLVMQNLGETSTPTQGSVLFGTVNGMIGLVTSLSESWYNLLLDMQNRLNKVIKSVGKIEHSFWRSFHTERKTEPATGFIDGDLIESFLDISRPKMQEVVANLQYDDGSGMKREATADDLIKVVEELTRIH

`CCOc1cc(-c2ccc(N3CCC(CN4CCC5(CC4)CCN(C(=O)Cc4ccc6c(c4)CN(C4CCC(=O)NC4=O)C6=O)CC5)(NC(=O)c4cc(F)ccc4F)CC3)nc2)c2c(C#N)cnn2c1` (centres unmarked) [Example 98, N-[1-(5-{3-cyano-6-ethoxypyrazolo[1,5-a]pyridin-4-yl}pyridin-2-yl)-4-[(9-{2-[2-(2,6-dioxopiperidin-3-yl)-1-oxo-2,3-dihydro-1H-isoindol-5-yl]acetyl}-3,9-diazaspiro[5.5]undecan-3-yl)methyl]piperidin-4-yl]-2,5-difluorobenzamide] was tested, and the Dmax was greater than 90% and the DC50 was 2 to 10 nM.

`CCOc1cc(-c2ccc(N3CCC(CN4CCC5(CC4)CCN(C(=O)COc4ccc6c(c4)CN(C4CCC(=O)NC4=O)C6=O)CC5)(NC(=O)c4cc(F)ccc4F)CC3)nc2)c2c(C#N)cnn2c1` (centres unmarked) [Example 99, N-[1-(5-{3-cyano-6-ethoxypyrazolo[1,5-a]pyridin-4-yl}pyridin-2-yl)-4-{[9-(2-{[2-(2,6-dioxopiperidin-3-yl)-1-oxo-2,3-dihydro-1H-isoindol-5-yl]oxy}acetyl)-3,9-diazaspiro[5.5]undecan-3-yl]methyl}piperidin-4-yl]-2,5-difluorobenzamide] gave a Dmax of 60 to 90% and a DC50 of less than 2 nM.

`CCOc1cc(-c2ccc(N3CCC(CN4CCN(CCOCCC(=O)N5CCN(c6ccc7c(c6)CN(C6CCC(=O)NC6=O)C7=O)CC5)CC4)(NC(=O)c4cc(F)ccc4F)CC3)nc2)c2c(C#N)cnn2c1` (centres unmarked) [Example 100, N-[1-(5-{3-cyano-6-ethoxypyrazolo[1,5-a]pyridin-4-yl}pyridin-2-yl)-4-({4-[2-(3-{4-[2-(2,6-dioxopiperidin-3-yl)-1-oxo-2,3-dihydro-1H-isoindol-5-yl]piperazin-1-yl}-3-oxopropoxy)ethyl]piperazin-1-yl}methyl)piperidin-4-yl]-2,5-difluorobenzamide] was tested, and the Dmax was greater than 90% and the DC50 was 2 to 10 nM.

`CCOc1cc(-c2ccc(N3CCC(CN4CCN(CCOCCC(=O)N5CCC(c6ccc7c(c6)C(=O)N(C6CCC(=O)NC6=O)C7)CC5)CC4)(NC(=O)c4cc(F)ccc4F)CC3)nc2)c2c(C#N)cnn2c1` (centres unmarked) [Example 101, N-[1-(5-{3-cyano-6-ethoxypyrazolo[1,5-a]pyridin-4-yl}pyridin-2-yl)-4-({4-[2-(3-{4-[2-(2,6-dioxopiperidin-3-yl)-3-oxo-2,3-dihydro-1H-isoindol-5-yl]piperidin-1-yl}-3-oxopropoxy)ethyl]piperazin-1-yl}methyl)piperidin-4-yl]-2,5-difluorobenzamide] was tested, and the Dmax was greater than 90% and the DC50 was 10 to 100 nM.

Work on `CCOc1cc(-c2ccc(N3CCC(CN4CCN(CCOCCC(=O)N5CCN(c6ccc7c(c6)C(=O)N(C6CCC(=O)NC6=O)C7)CC5)CC4)(NC(=O)c4cc(F)ccc4F)CC3)nc2)c2c(C#N)cnn2c1` (centres unmarked) [Example 103, N-[1-(5-{3-cyano-6-ethoxypyrazolo[1,5-a]pyridin-4-yl}pyridin-2-yl)-4-({4-[2-(3-{4-[2-(2,6-dioxopiperidin-3-yl)-3-oxo-2,3-dihydro-1H-isoindol-5-yl]piperazin-1-yl}-3-oxopropoxy)ethyl]piperazin-1-yl}methyl)piperidin-4-yl]-2,5-difluorobenzamide] yielded a Dmax greater than 90% and a DC50 of 10 to 100 nM.

`CCOc1cc(-c2ccc(N3CCC(CN4CCN(C(=O)CCOCCN5CCN(c6ccc7c(c6)CN(C6CCC(=O)NC6=O)C7=O)CC5)CC4)(NC(=O)c4cc(F)ccc4F)CC3)nc2)c2c(C#N)cnn2c1` (centres unmarked) [Example 104, N-[1-(5-{3-cyano-6-ethoxypyrazolo[1,5-a]pyridin-4-yl}pyridin-2-yl)-4-({4-[3-(2-{4-[2-(2,6-dioxopiperidin-3-yl)-1-oxo-2,3-dihydro-1H-isoindol-5-yl]piperazin-1-yl}ethoxy)propanoyl]piperazin-1-yl}methyl)piperidin-4-yl]-2,5-difluorobenzamide] gave a Dmax of 60 to 90% and a DC50 of 2 to 10 nM.

`CCOc1cc(-c2ccc(N3CCC(CN4CCN(C(=O)CCOCCNc5ccc6c(N7CCC(=O)NC7=O)nn(C)c6c5)CC4)(NC(=O)c4cc(F)ccc4F)CC3)nc2)c2c(C#N)cnn2c1` [Example 105, N-[1-(5-{3-cyano-6-ethoxypyrazolo[1,5-a]pyridin-4-yl}pyridin-2-yl)-4-({4-[3-(2-{[3-(2,4-dioxo-1,3-diazinan-1-yl)-1-methyl-1H-indazol-6-yl]amino}ethoxy)propanoyl]piperazin-1-yl}methyl)piperidin-4-yl]-2,5-difluorobenzamide] gave a Dmax of 60 to 90% and a DC50 of 2 to 10 nM.

`CCOc1cc(-c2ccc(N3CCC(CN4CCN(CCOCCOCCC(=O)Nc5ccc6c(N7CCC(=O)NC7=O)nn(C)c6c5)CC4)(NC(=O)c4cc(F)ccc4F)CC3)nc2)c2c(C#N)cnn2c1` [Example 108, N-[1-(5-{3-cyano-6-ethoxypyrazolo[1,5-a]pyridin-4-yl}pyridin-2-yl)-4-[(4-{2-[2-(2-{[3-(2,4-dioxo-1,3-diazinan-1-yl)-1-methyl-1H-indazol-6-yl]carbamoyl}ethoxy)ethoxy]ethyl}piperazin-1-yl)methyl]piperidin-4-yl]-2,5-difluorobenzamide] gave a Dmax of 60 to 90% and a DC50 of 10 to 100 nM.

`CCOc1cc(-c2ccc(N3CCC(CN4CCN(CCOCCOCCC(=O)N5CCN(c6ccc7c(c6)CN(C6CCC(=O)NC6=O)C7=O)CC5)CC4)(NC(=O)c4cc(F)ccc4F)CC3)nc2)c2c(C#N)cnn2c1` (centres unmarked) [Example 109, N-[1-(5-{3-cyano-6-ethoxypyrazolo[1,5-a]pyridin-4-yl}pyridin-2-yl)-4-[(4-{2-[2-(3-{4-[2-(2,6-dioxopiperidin-3-yl)-1-oxo-2,3-dihydro-1H-isoindol-5-yl]piperazin-1-yl}-3-oxopropoxy)ethoxy]ethyl}piperazin-1-yl)methyl]piperidin-4-yl]-2,5-difluorobenzamide] showed a Dmax of 60 to 90% and a DC50 of 10 to 100 nM.

For `CCOc1cc(-c2ccc(N3CCC(CN4CCN(CC5CCN(C(=O)c6ccc7c(c6)C(=O)N(C6CCC(=O)NC6=O)C7)CC5)CC4)(NC(=O)c4cc(F)ccc4F)CC3)nc2)c2c(C#N)cnn2c1` (centres unmarked) [Example 110, N-[1-(5-{3-cyano-6-ethoxypyrazolo[1,5-a]pyridin-4-yl}pyridin-2-yl)-4-{[4-({1-[2-(2,6-dioxopiperidin-3-yl)-3-oxo-2,3-dihydro-1H-isoindole-5-carbonyl]piperidin-4-yl}methyl)piperazin-1-yl]methyl}piperidin-4-yl]-2,5-difluorobenzamide], the Dmax was 60 to 90% and the DC50 was 2 to 10 nM.

`CCOc1cc(-c2ccc(N3CCC(CN4CCN(CC5CCN(C(=O)Cc6cccc7c6CN(C6CCC(=O)NC6=O)C7=O)CC5)CC4)(NC(=O)c4cc(F)ccc4F)CC3)nc2)c2c(C#N)cnn2c1` (centres unmarked) [Example 111, N-[1-(5-{3-cyano-6-ethoxypyrazolo[1,5-a]pyridin-4-yl}pyridin-2-yl)-4-({4-[(1-{2-[2-(2,6-dioxopiperidin-3-yl)-1-oxo-2,3-dihydro-1H-isoindol-4-yl]acetyl}piperidin-4-yl)methyl]piperazin-1-yl}methyl)piperidin-4-yl]-2,5-difluorobenzamide] showed a Dmax of 60 to 90% and a DC50 of 2 to 10 nM.

`CCOc1cc(-c2ccc(N3CCC(CN4CCN(CC5CCN(C(=O)Cc6ccc7c(c6)CN(C6CCC(=O)NC6=O)C7=O)CC5)CC4)(NC(=O)c4cc(F)ccc4F)CC3)nc2)c2c(C#N)cnn2c1` (centres unmarked) [Example 112, N-[1-(5-{3-cyano-6-ethoxypyrazolo[1,5-a]pyridin-4-yl}pyridin-2-yl)-4-({4-[(1-{2-[2-(2,6-dioxopiperidin-3-yl)-1-oxo-2,3-dihydro-1H-isoindol-5-yl]acetyl}piperidin-4-yl)methyl]piperazin-1-yl}methyl)piperidin-4-yl]-2,5-difluorobenzamide] was tested, and the Dmax was greater than 90% and the DC50 was 2 to 10 nM.

For `CCOc1cc(-c2ccc(N3CCC(CN4CCN(CC5CCN(C(=O)Cc6ccc7c(c6)C(=O)N(C6CCC(=O)NC6=O)C7)CC5)CC4)(NC(=O)c4cc(F)ccc4F)CC3)nc2)c2c(C#N)cnn2c1` (centres unmarked) [Example 113, N-[1-(5-{3-cyano-6-ethoxypyrazolo[1,5-a]pyridin-4-yl}pyridin-2-yl)-4-({4-[(1-{2-[2-(2,6-dioxopiperidin-3-yl)-3-oxo-2,3-dihydro-1H-isoindol-5-yl]acetyl}piperidin-4-yl)methyl]piperazin-1-yl}methyl)piperidin-4-yl]-2,5-difluorobenzamide], the Dmax was greater than 90% and the DC50 was less than 2 nM.

For `CCOc1cc(-c2ccc(N3CCC(CN4CCN(CC5CCN(C(=O)COc6ccc7c(c6)CN(C6CCC(=O)NC6=O)C7=O)CC5)CC4)(NC(=O)c4cc(F)ccc4F)CC3)nc2)c2c(C#N)cnn2c1` (centres unmarked) [Example 114, N-[1-(5-{3-cyano-6-ethoxypyrazolo[1,5-a]pyridin-4-yl}pyridin-2-yl)-4-[(4-{[1-(2-{[2-(2,6-dioxopiperidin-3-yl)-1-oxo-2,3-dihydro-1H-isoindol-5-yl]oxy}acetyl)piperidin-4-yl]methyl}piperazin-1-yl)methyl]piperidin-4-yl]-2,5-difluorobenzamide], the Dmax was 60 to 90% and the DC50 was less than 2 nM.

In the case of `CCOc1cc(-c2ccc(N3CCC(CN4CCN(CCC(=O)N5CCN(c6ccc7c(c6)C(=O)N(C6CCC(=O)NC6=O)C7)CC5)CC4)(NC(=O)c4cc(F)ccc4F)CC3)nc2)c2c(C#N)cnn2c1` (centres unmarked) [Example 115, N-[1-(5-{3-cyano-6-ethoxypyrazolo[1,5-a]pyridin-4-yl}pyridin-2-yl)-4-{[4-(3-{4-[2-(2,6-dioxopiperidin-3-yl)-3-oxo-2,3-dihydro-1H-isoindol-5-yl]piperazin-1-yl}-3-oxopropyl)piperazin-1-yl]methyl}piperidin-4-yl]-2,5-difluorobenzamide], the Dmax is reported as 60 to 90% and the DC50 is reported as 10 to 100 nM.

Work on `CCOc1cc(-c2ccc(N3CCC(CN4CCN(CCC(=O)N5CCC(c6ccc7c(c6)C(=O)N(C6CCC(=O)NC6=O)C7)CC5)CC4)(NC(=O)c4cc(F)ccc4F)CC3)nc2)c2c(C#N)cnn2c1` (centres unmarked) [Example 116, N-[1-(5-{3-cyano-6-ethoxypyrazolo[1,5-a]pyridin-4-yl}pyridin-2-yl)-4-{[4-(3-{4-[2-(2,6-dioxopiperidin-3-yl)-3-oxo-2,3-dihydro-1H-isoindol-5-yl]piperidin-1-yl}-3-oxopropyl)piperazin-1-yl]methyl}piperidin-4-yl]-2,5-difluorobenzamide] yielded a Dmax greater than 90% and a DC50 of 2 to 10 nM.
